From patent US11384096B2, “Substituted azetidine dihydrothienopyridines and their use as phosphodiesterase inhibitors” (UNION therapeutics A/S, priority 2017, dated 2022)

Tests used:
[1] = system: Human peripheral blood mononuclear cells (PBMC), TNF-α release; experiment: TNF-α release in LPS-stimulated PBMC; format: cell-based; conditions: 30 minutes pre-incubation, stimulated for 18 hours with lipopolysaccharide, read-out: TNF-α IC50 range
Procedure: Human peripheral blood mononuclear cells (PBMC) were isolated from buffy coats. The blood is mixed with saline at a ratio of 1:1, and the PBMC were isolated using Lymphoprep Tubes™ (Nycomed, Norway). The PBMC were suspended in RPMI1640 with 0.5% human serum albumin, pen/strep and 2 mM L-glutamine at a concentration of 5×105 c/ml. The cells were pre-incubated for 30 minutes with the test compounds in 96 well tissue culture plates and stimulated for 18 hours with lipopolysaccharide […] (Sigma). TNF-α concentration in the supernatants was measured using homogeneous time-resolved fluorescence resonance (TR-FRET). The assay is quantified by measuring fluorescence at 665 nm (proportional to TNF-α concentration) and 620 nm (control).
Results were expressed as IC50 values calculated from inhibition curves using as positive controls the secretion in LPS stimulated wells and as negative controls the secretion in unstimulated cells.

[2] = target: human PDE4D catalytic domain (Homo sapiens (Human), UniProt Q08499); experiment: PDE4 Assay (TR-FRET, cAMP cleavage); format: biochemical; conditions: 50% inhibition of substrate cleavage, read-out: PDE4 IC50 range
Procedure: The human PDE4D catalytic domain (UniProt no. Q08499 [[…]]) was incubated with a mixture of non-labelled cAMP (cyclic adenosine monophosphate) and fluorescein amidite (FAM) conjugated cAMP and titrated test or reference compound. Following brief incubation the enzymatic reaction was stopped by addition of binding buffer containing nanoparticles with immobilized trivalent metal ions capable of binding 1) AMP phospho groups and 2) terbium (Tb) donor fluorophores. Subsequent excitation of the Tb donor triggers time-resolved FRET to adjacent FAM acceptor molecules resulting in light emission. In the presence of a PDE4 inhibitor, AMP generation was reduced resulting in a lower fluorescence signal. The cAMP phosphodiester is not bound by the detection system.
The results were calculated as the molar concentrations resulting in 50% inhibition of the substrate cleavage compared to controls samples, and are expressed as IC50 (nM).

Chain of human PDE4D catalytic domain (Q08499 380-740 limits assumed): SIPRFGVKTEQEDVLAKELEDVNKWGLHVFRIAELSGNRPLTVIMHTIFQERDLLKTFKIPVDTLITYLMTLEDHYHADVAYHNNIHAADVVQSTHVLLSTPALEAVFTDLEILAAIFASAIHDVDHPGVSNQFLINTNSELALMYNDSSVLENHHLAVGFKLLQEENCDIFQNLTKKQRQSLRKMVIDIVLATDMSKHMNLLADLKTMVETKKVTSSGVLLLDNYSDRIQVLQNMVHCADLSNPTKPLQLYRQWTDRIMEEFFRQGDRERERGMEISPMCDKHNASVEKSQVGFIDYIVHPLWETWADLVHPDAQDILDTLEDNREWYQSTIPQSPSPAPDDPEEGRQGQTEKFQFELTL

Question: [O-][S+]1CCc2nc(N3CC(c4ccc(F)cc4)C3)cc(NC3CCOCC3)c21 (stereo in doubt) [Example 1, (1R)-5-(3-(4-Fluorophenyl)azetidin-1-yl)-7-((tetrahydro-2H-pyran-4-yl)amino)-2,3-dihydrothieno[3,2-b]pyridine 1-oxide] was tested. Which IC50 [1] did it give?
Answer: < 10 nM

Question: And the IC50 [2]?
Answer: 10 to 50 nM

Question: What does the source list for [O-][S+]1CCc2nc(N3CC(Oc4ccc(F)cc4)C3)cc(NC3CCOCC3)c21 (stereo in doubt) [Example 4, (1R)-5-(3-(4-Fluorophenoxy)azetidin-1-yl)-7-((tetrahydro-2H-pyran-4-yl)amino)-2,3-dihydrothieno[3,2-b]pyridine-1-oxide]?
Answer: IC50 [1]: 10 to 50 nM; IC50 [2]: 10 to 50 nM

Question: With COC(=O)N1CCC[C@@H](Nc2cc(N3CC(c4ccc(F)cc4)C3)nc3c2[S@+]([O-])CC3)C1 [Example 2, Methyl (3R)-3-[[(1R)-5-[3-(4-fluorophenyl)azetidin-1-yl]-1-oxido-2,3-dihydrothieno-[3,2-b]pyridin-7-yl]amino]piperidine-1-carboxylate] as the compound, how does the IC50 [1] read?
Answer: < 10 nM

Question: What about the IC50 [2] of the same compound?
Answer: < 10 nM

Question: For COC(=O)N1CCC[C@@H](Nc2cc(N3CC(c4ccccc4)C3)nc3c2[S@+]([O-])CC3)C1 [Example 3], which IC50 [1] is on record?
Answer: < 10 nM

Question: And the IC50 [2]?
Answer: < 10 nM

Question: With COC(=O)N1CC[C@H](Nc2cc(N3CC(Oc4ccc(F)cc4)C3)nc3c2[S@+]([O-])CC3)C1 [Example 5, Methyl (3S)-3-[[(1R)-5-[3-(4-fluorophenoxy)azetidin-1-yl]-1-oxido-2,3-dihydrothieno[3,2-b]pyridine-7-yl]amino]pyrrolidine-1-carboxylate] as the compound, how does the IC50 [1] read?
Answer: 50 to 150 nM

Question: What about the IC50 [2] of the same compound?
Answer: 50 to 150 nM

Question: CC(=O)N1CC[C@H](Nc2cc(N3CC(Oc4ccc(F)cc4)C3)nc3c2[S@+]([O-])CC3)C1 [Example 6, 1-[(3S)-3-[[(1R)-5-[3-(4-Fluorophenoxy)azetidin-1-yl]-1-oxido-2,3-dihydrothieno[3,2-b]pyridin-7-yl]amino]pyrrolidin-1-yl]ethanone] was tested. Which IC50 [1] did it give?
Answer: 10 to 50 nM

Question: What about the IC50 [2] of the same compound?
Answer: < 10 nM

Question: For [O-][S@+]1CCc2nc(N3CC(c4ccccc4)C3)cc(NC3CCOCC3)c21 [Example 7, (1R)-5-(3-Phenylazetidin-1-yl)-7-((tetrahydro-2H-pyran-4-yl)amino)-2,3-dihydrothieno[3,2-b]pyridine-1-oxide], which IC50 [1] is on record?
Answer: 10 to 50 nM

Question: What about the IC50 [2] of the same compound?
Answer: 10 to 50 nM
